# Measured values taken from US20260347843A1, “NERVOUS SYSTEM DELIVERY ENHANCER” (priority 2022, published 2026).
# How the values were obtained:
# Malat1 RNA = Malat1 RNA expression level after intraventricular administration (target gene suppression effect); assay type: in vivo, mouse; settings: 7 days
# Method: Seven-week-old female ICR mice anesthetized with 2.5 to 4% isoflurane were fixed to a brain stereotaxic apparatus. Then, skin between the ears was cut open 2 to 3 cm anteroposteriorly, and perforated 1 mm leftward and 0.2 mm posteriorly from the bregma using a 1 mm diameter drill. A Hamilton syringe was filled with the nucleic acid agent. Through the perforated site, a needle was inserted approximately 3 mm deep. The ASO at a dose of 0.95 nmol (5 μg) per mouse was administered into the left lateral ventricle (n=4 to 7/group). The group to which ASO and TGN-073 were coadministered (hereinafter, the group is referred to as the “ASO/TGN-073 coadministration group”) means that ASO mixed with TGN-073 was administered. The group to which only ASO was administered (hereinafter, the group is referred to as the “ASO single administration group”) means that only ASO was administered without being mixed with TGN-073. The dose of TGN-073 in the ASO/TGN-073 coadministration group was 0.25 mg per mouse. After the intraventricular administration, the skin was sutured with a nylon thread. In addition, mice to which only TGN-073 was administered (hereinafter, the mice are referred to as the “TGN-073 administration group”) and mice to which only PBS was administered (hereinafter, the mice are referred to as the “PBS administration group”) were produced as controls.
# A left hippocampus was extirpated from each of the mice at 3 hours or 7 days after the intraventricular administration. Using an IsogenI kit (GeneDesign Inc.), RNA was extracted from the left hippocampus extirpated. A cDNA was synthesized using Transcriptor Universal cDNA Master, DNase (Roche Diagnostics) in accordance with the protocol.
# Next, quantitative RT-PCR was performed with TaqMan (Roche Applied Science). Primers used in quantitative RT-PCR were products designed and manufactured by Thermo Fisher Scientific Inc. (formerly known as Life Technologies Corp.) on the basis of the various numbers of genes. Amplification conditions (temperature and time) were as follows: one cycle—95 °C for 15 seconds, 60 °C for 30 seconds, and 72 °C for 1 second—was repeated 40 times. The ratio of the expression amount of Malat1 RNA to the expression amount of Actb mRNA (internal standard gene) was calculated, and a value standardized with respect to the value of the PBS-treated group was determined as a relative Malat1 RNA level.
# In this Example, the ASO targeted at Malat1, and used in Example 1 (the ASO described in Table 1) was used. Performed in accordance with Example 1 were: the preparation of a nucleic acid; an in vivo experiment; and the evaluation of the intracerebral ASO concentration (the amount of the nucleic acid delivered to the brain); and the target gene suppression effect. […]
# [1] = ASO concentration in spinal cord and left hippocampus after intrathecal administration; assay type: in vivo; settings: rat, coadministered with Mapt-targeting ASO of Table 2 (76 nmol, 400 μg per rat), 7 days
# Method: In this Example, an ASO having the same configuration as the ASO used in Example 3 (the ASO described in Table 2) was used, and a nucleic acid was prepared by the same method as in Example 1.
# The intrathecal administration of ASO and the measurement of the ASO concentration were performed by the following methods. A catheter was inserted into the spinal subarachnoid of an 8-week-old Slc:SD rat (male). When the rat was 9 weeks old, ASO and/or TGN-073 in an amount of 76 nmol (400 μg) per rat ([…]) was administered intrathecally. Hereinafter, the rats to which ASO alone was intrathecally administered are referred to as the “ASO single administration group”, and the rats to which ASO and TGN-073 were intrathecally administered together are referred to as the “ASO/TGN-073 coadministration group”. The spinal part and the left hippocampus were extirpated from the rats at 7 days after the intrathecal administration, and the ASO concentration in each tissue was evaluated by the same method as in Example 1.
# [2] = system: GFP expression in the central nervous system; experiment: GFP expression from AAV9 vector in hippocampus-level coronal images after intraventricular administration; assay type: in vivo; settings: coadministered with AAV9-CMV-hrGFP, TGN-073 250 μg/mouse, 3 weeks
# Method: In this Example, a GFP expression AAV9 (AAV9-CMV-hrGFP) as an adeno-associated viral (AAV) vector, alone or in combination with TGN-073 (250 μg/mouse), was administered at a dose of 26× 109 vg/mouse to the left lateral ventricle of a 7-week-old ICR mouse (female). Hereinafter, the mice to which only the AAV vector was intraventricularly administered are referred to as the “AAV single administration group”, and the mice to which the AAV vector and TGN-073 were intraventricularly administered together are referred to as the “AAV/TGN-073 coadministration group”. At 3 weeks after the intraventricular administration, the mouse was subjected to perfusion fixation using 4% paraformaldehyde. The mouse was subjected to cryoprotective treatment using a solution of 10% to 30% sucrose dissolved in PBS, and then, a cut-piece having a thickness of 40 μm was produced using a microtome. Using a fluorescence microscope (VHS-7000, Keyence Corporation), the GFP fluorescence (hippocampus-level coronal image) was captured.
structure (smiles),measurement,setting,value
"O=S(=O)(Nc1ncccc1OCc1ccccc1)c1ccccc1 [TGN-073, N-(3-benzyloxypyridin-2-yl)-benzene-sulfonamide]",Target gene (Malat1) suppression effect in the hippocampus vs ASO single administration,"Malat1 RNA; coadministered with 2′-O-MOE-modified ASO (1.7 nmol, 12.5 μg)",an augmentation of the target gene suppression effect
same,Target gene (Malat1) suppression effect in the hippocampus vs nucleic acid agent alone,"Malat1 RNA; coadministered with ASO, HDO or Chol-HDO (0.95 nmol), any of the groups",marked enhancement
same,Suppression effect on the Malat1 gene in the hippocampus vs ASO single administration,"Malat1 RNA; coadministered with Malat1-targeting ASO (0.95 nmol), TGN-073 0.25 mg per mouse",markedly enhanced
same,Target gene (Malat1) suppression effect in the lumbar cord portion vs ASO single administration,"Malat1 RNA; coadministered with Malat1-targeting ASO (1.7 nmol, 12.5 μg)",marked enhancement
same,ASO concentration in the left hippocampus vs ASO single administration,[1],dramatic increase
same,ASO concentration in the spinal part vs ASO single administration,[1],dramatic increase
same,GFP expression amount vs AAV single administration,[2],increase in the expression amount
same,Range of GFP expression in the central nervous system vs AAV single administration,[2],significantly wide range
